Results from patent US8207142B2, “Inhibitor of DNA methylation” (priority 2001, dated 2012).
Where “and” joins values, the source holds several entries; their conditions need not be identical. Identical values can stand only once.

Key:
[1] = test system: DNA methylation of the am^RIP and ψ63 sequences; assay: Southern blot analysis of DNA methylation in N. crassa (Dpn II vs Sau3AI digests); format: cell-based, Neurospora crassa; conditions: 12 and 24 μM 5-AC; 0.33 and 3.3 μM TSA; 20, 39, 78, 160 and 310 μM Zebularine
Experimental: DNA was digested with Dpn II (D) or Sau3AI (S), fractionated by gel electrophoresis, transferred to a membrane and probed for am (FIG. 4A) or ψ63 (FIG. 4B) sequences. Dpn II and Sau3AI both recognize the sequence GATC, but Sau3AI fails to cleave if the C residue is methylated. Thus, differences between S and D lanes are indicative of DNA methylation.
The ramp symbols at the top of the figure represent increasing concentrations of drug. Drug concentrations were 12 and 24 μM 5-AC; 0.33 and 3.3 μM TSA; and 20, 39, 78, 160 and 310 μM Zebularine. The positions of selected size standards (kb) are indicated.
Southern hybridizations were performed on DNA samples (−1 μg) isolated from liquid cultures inoculated with 7×10^4 conidia/ml. DNA was digested with Dpn II (D) or Sau3AI (S), fractionated by gel electrophoresis, transferred to a nylon membrane and probed for am^RIP (FIG. 4A) or ψ63 (FIG. 4B) sequences. The restriction endonucleases Dpn II and-Sau3AI both recognize the sequence GATC, but Sau3AI fails to cleave if the C residue is methylated. Drug concentrations were […] 5-AC, 0.33 and 3.3 μM TSA, and […] Zebularine.
The positions of selected size standards (kb) and the origin (ori) are indicated. […] Differences between S and D lanes are indicative of DNA methylation.

[2] = test system: 10T1/2 cells; assay: Induction of a myogenic phenotype (myotube formation) in 10T1/2 cells; format: cell-based, mouse; parameters: key to Muscle Formation: + representing minimal muscle formation; scored for muscle cells 9-10 days later as + to +++; +++ representing maximal muscle formation; conditions: for Muscle Formation: 24 hours treatment, scored 9-10 days later; for muscle formation (micrographs, in words): 10T1/2 cells, approximately 9-10 days after drug treatment
Experimental: Cells were plated (3×10^5 cells/100-mm dish) and treated 24 hours later with the indicated concentrations of compounds. The medium was either changed 24 hours or 48 hours after drug treatment. Myotube formation was assayed in 10T1/2 cells as previously described (Constantinides et al., Nature 267:364-366, 1977). […] The ability of Zebularine to cause 10T1/2 cells to undergo the myogenic switch was therefore tested (FIG. 7).

[3] = test system: p3 locus; assay: Ms-SNuPE quantitation of DNA methylation in 10T1/2 cells; format: cell-based, mouse; conditions: 24 hours, control 86
Experimental: (§1) The average methylation at defined CpG sites was quantitated using a Ms-SNuPE assay, as described by Gonzalgo and Jones (Nucleic Acids Res. 25:2529-2531, 1997) and U.S. Pat. No. 6,251,594. Briefly, genomic DNA (˜4 μg) was digested overnight with 4 units of EcoRI (Boehringer Mannheim) (p16 promoter/exon 1 and p16 exon 2; FIG. 9A) or with 4 units of RsaI (Boehringer Mannheim) (P3; FIG. 9B) to cut outside the region of interest.
(§2) After standard treatment with sodium bisulfite, a PCR product of the region was generated as template for top-strand methylation analysis. The sequences of the primers used for bisulfite-treated DNA amplification were as follows: […]
P3: 95° C. for 2 minutes, 95° C. for 1 minute, 50° C. for 50 seconds, and 72° C. for 1 minute for 40 cycles, with a final extension at 72° C. for 10 minutes.
(§3) Duplicates of 4 μl of template were then added to 6 μl of mixture consisting of 1× PCR buffer, 1 μM final concentration primers, 1 μCi of [^32P]dCTP or dTTP, and 1 unit 1:1 Taq/TaqStart antibody (Clontech, Palo Alto, Calif.). Single nucleotide extension involved incubation at 95° C. for 1 minute, then 50° C. for 2 minutes, and finally 72° C. for 1 minute (p16 promoter/exon1 and P16 exon 2) and 95° C. for 1 minute, then 46° C. for 30 seconds, and finally 72° C. for 20 seconds (P3). The sequences for SNuPE primers were as follows: […]
(§4) After briefly spinning down the tubes, 4 μl of stop solution were added to the 10-μl reaction volume, and the samples were boiled for 5 minutes at 95° C. before loading 1.5 μl onto a 15% denaturing polyacrylamide gel (7 M urea). The gel was run at 90 W for 1.5 hours and then dried at 80° C. for 40 minutes. The gel was exposed to a phosphorimaging cassette for quantitation of the ratio of [^32P]dCTP versus [^32P]dTTP incorporation, and the quantitation of the percent methylation was averaged from three separate CpG sites. The gel was then exposed to BioMax MR film (Kodak) to record experimental results.

[4] = test system: 10T1/2 cells; assay: Colony-formation assay (plating efficiency) in 10T1/2 cells; format: cell-based, mouse; conditions: for Ave. Plating Efficiency (%): 250 cells, stained after 14-16 days, control 22; for decrease in plating deficiency (cytotoxicity) / cell death observed: 10T1/2 cells; for cell death observed: 0.3 μM 5-Aza-CdR, 3 μM 5-Aza-CR, 30 μM Zebularine
Experimental: (§5) The percentage cell survival was assessed by dividing the mean colony number on the treated plates divided by the mean colony number on the untreated plates ×100.

[5] = test system: p16 promoter; assay: Ms-SNuPE quantitation of DNA methylation in T24 cells, p16 promoter; format: cell-based, human; conditions: control 96
Experimental: as §1, §2
p16 promoter/exon 1: 94° C. for 3 minutes, 94° C. for 45 seconds, 67° C. for 45 seconds, and 72° C. for 45 seconds for 40 cycles, with a final extension step at 72° C. for 10 minutes.
as §3, §4

[6] = test system: p16 exon 2; assay: Ms-SNuPE quantitation of DNA methylation in T24 cells, p16 exon 2; format: cell-based, human; conditions: for p16 Exon 2 Methylation (%): control 96
Experimental: as §1, §2
p16 exon 2: 94° C. for 3 minutes, 94° C. for 1 minute, 62° C. for 45 seconds, and 72° C. for 45 seconds for 40 cycles, with a final extension step at 72° C. for 10 minutes.
as §3, §4

[7] = test system: T24 cells; assay: Colony-formation assay (decrease in plating efficiency) in T24 cells; format: cell-based, human
Experimental: as §5

SMILES: Nc1ncn([C@@H]2O[C@H](CO)[C@@H](O)[C@H]2O)c(=O)n1 [5-Aza-CR, 5-azacytidine, reference compound]
- effect on DNA methylation (Southern blot) [1]: inhibits DNA methylation globally
- Muscle Formation ([2]; 1 μM): ++
- Muscle Formation ([2]; 3 μM): +++
- muscle formation (micrographs, in words) [2]: formed multinucleated myotubes
- % Methylation ([3]; 1 μM): 65 +/− 2%
- % Methylation ([3]; 3 μM): 59% and 59 +/− 6%
- Ave. Plating Efficiency (%) ([4]; 1 μM): 21%
- decrease in plating deficiency (cytotoxicity) ([4]; 3 μM): 24%
- Ave. Plating Efficiency (%) ([4]; 3 μM): 16%
- cell death observed [4]: appreciable cell death
- p16 Promoter Methylation (%) ([5]; 3 μM, 24 hrs): 91% and 91 +/− 1%
- p16 Promoter Methylation (%) ([5]; 10 μM, 24 hrs): 83 +/− 2%
- p16 Promoter Methylation (%) ([5]; 30 μM, 24 hrs): 73 +/− 2%
- p16 Promoter Methylation (%) ([5]; 100 μM, 24 hrs): 68% and 68 +/− 2%
- Relative p16 Exon 2 De-methylation (%) ([6]; 3 μM, 24 hrs): 8 +/− 2%
- p16 Exon 2 Methylation (%) ([6]; 3 μM, 24 hrs): 88 +/− 2%
- Relative p16 Exon 2 De-methylation (%) ([6]; 10 μM, 24 hrs): 15 +/− 1%
- p16 Exon 2 Methylation (%) ([6]; 10 μM, 24 hrs): 82 +/− 1%
- Relative p16 Exon 2 De-methylation (%) ([6]; 30 μM, 24 hrs): 25%
- p16 Exon 2 Methylation (%) ([6]; 30 μM, 24 hrs): 72 +/− 2%
- Relative p16 Exon 2 De-methylation (%) ([6]; 100 μM, 24 hrs): 29%
- p16 Exon 2 Methylation (%) ([6]; 100 μM, 24 hrs): 68 +/− 3%
- Toxicity (%) (decrease in plating efficiency) ([7]; 3 μM, 24 hrs): 2%
- Toxicity (%) (decrease in plating efficiency) ([7]; 10 μM, 24 hrs): 12%
- Toxicity (%) (decrease in plating efficiency) ([7]; 30 μM, 24 hrs): 30%
- Toxicity (%) (decrease in plating efficiency) ([7]; 100 μM, 24 hrs): 54%

SMILES: O=c1ncccn1[C@@H]1O[C@H](CO)[C@@H](O)[C@H]1O [Zebularine, 1-β-ribofuranosyl-1,2-dihydropyrimidin-2-one]
- effect on DNA methylation (Southern blot) [1]: inhibits DNA methylation globally
- Muscle Formation ([2]; 10 μM): +
- Muscle Formation ([2]; 30 μM): ++
- muscle formation (micrographs, in words) [2]: induced muscle formation in 10T1/2 cells
- % Methylation ([3]; 10 μM): 75 +/− 2%
- % Methylation ([3]; 30 μM): 58% and 58 +/− 1%
- Ave. Plating Efficiency (%) ([4]; 10 μM): 20%
- Ave. Plating Efficiency (%) ([4]; 30 μM): 18%
- decrease in plating deficiency (cytotoxicity) [4]: 17%
- cell death observed [4]: only very little cell death
- p16 Promoter Methylation (%) ([5]; 300 μM, 24 hrs): 91% and 91 +/− 1%
- p16 Promoter Methylation (%) ([5]; 300 μM, 48 hrs): 80% and 80 +/− 1%
- p16 Promoter Methylation (%) ([5]; 500 μM, 24 hrs): 85% and 85 +/− 1%
- p16 Promoter Methylation (%) ([5]; 500 μM, 48 hrs): 77% and 77 +/− 2%
- p16 Promoter Methylation (%) ([5]; 1000 μM, 24 hrs): 72% and 72 +/− 2%
- p16 Promoter Methylation (%) ([5]; 1000 μM, 48 hrs): 68% and 68 +/− 2%
- Relative p16 Exon 2 De-methylation (%) ([6]; 300 μM, 24 hrs): 7 +/− 1%
- p16 Exon 2 Methylation (%) ([6]; 300 μM, 24 hrs): 89 +/− 1%
- Relative p16 Exon 2 De-methylation (%) ([6]; 300 μM, 48 hrs): 16 +/− 2%
- p16 Exon 2 Methylation (%) ([6]; 300 μM, 48 hrs): 81 +/− 2%
- Relative p16 Exon 2 De-methylation (%) ([6]; 500 μM, 24 hrs): 9 +/− 1%
- p16 Exon 2 Methylation (%) ([6]; 500 μM, 24 hrs): 87 +/− 1%
- Relative p16 Exon 2 De-methylation (%) ([6]; 500 μM, 48 hrs): 18 +/− 2%
- p16 Exon 2 Methylation (%) ([6]; 500 μM, 48 hrs): 79 +/− 2%
- Relative p16 Exon 2 De-methylation (%) ([6]; 1000 μM, 24 hrs): 20 +/− 2%
- p16 Exon 2 Methylation (%) ([6]; 1000 μM, 24 hrs): 77 +/− 2%
- Relative p16 Exon 2 De-methylation (%) ([6]; 1000 μM, 48 hrs): 24 +/− 1%
- p16 Exon 2 Methylation (%) ([6]; 1000 μM, 48 hrs): 73 +/− 1%
- Toxicity (%) (decrease in plating efficiency) ([7]; 300 μM, 24 hrs): 1%
- Toxicity (%) (decrease in plating efficiency) ([7]; 300 μM, 48 hrs): 2%
- Toxicity (%) (decrease in plating efficiency) ([7]; 500 μM, 24 hrs): 7%
- Toxicity (%) (decrease in plating efficiency) ([7]; 500 μM, 48 hrs): 8%
- Toxicity (%) (decrease in plating efficiency) ([7]; 1000 μM (1 mM), 48 hrs): 23%
- Toxicity (%) (decrease in plating efficiency) ([7]; 1000 μM, 24 hrs): 18%
